In PubChem BioAssay AID1963830 (Molecular Pharmacology Branch, DTP, NCI, 2024):
Values joined by “and” are separate entries in the source; they are usually repeats but may differ in a detail not shown here. Equal values may be shown once. Values belong to the compound of their own block, whether it stands above or below them.

Tested on: 922993-354-T-J3-PDC complex spheroid viability
Assay: Anticancer human tumor 922993-354-T-J3-PDC patient-derived endometrial carcinoma cell line growth inhibition [POLQ]
Details: for viability, T/C: stronger effect = lower value
Procedure: Multicellular complex tumor spheroid response to Polymerase (POL) inhibitors (novobiocin, ART-558, RP6685) in combination with a variety of drugs and investigational agents in selected tumor cell lines
The POL inhibitors (novobiocin, ART-558, and RP6685) were evaluated both individually and in combination with standard of care and investigational anticancer small molecules within a complex spheroid model of solid tumors. . Complex spheroids include a stromal component modeled by human endothelial cells (HUVEC) and fibroblasts modeled by human mesenchymal stem cells (MSCs). The concentration ranges selected for each drug and investigational agent were based upon clinically achievable concentrations if the clinical Cmax of the agent was known.
Compounds. The drugs and investigational agents: novobiocin (NSC847541), ART-558 (NSC835418), RP-6685 (NSC848927), peposertib (NSC802822), ceralasertib (NSC780249), elimusertib (NSC800525), camonsertib (NSC841442), AZD-1390 (NSC803789), olaparib (NSC753686), talazoparib (NSC767125), rucaparib (NSC756644), sotorasib (NSC818433), MRTX-1133 (NSC836407), SN-38 (NSC673596), topotecan (NSC609699), epotoside (NSC141540), doxorubicin (NSC123127), gemcitabine (NSC613327), 5-fluorouracil (NSC19893), paclitaxel (NSC125973), vemurafenib (NSC761431), MSA-2 (NSC828583), SN-011 (NSC837082), adavosertib (NSC754352), prexasertib (NSC758257), carboplatin (NSC241240) and oxaliplatin (NSC266046), were obtained from the National Cancer Institute (NCI) Developmental Therapeutics Program Chemical Repository (21). The FDA-approved anticancer drug set is available from the Developmental Therapeutics Program at https://dtp.cancer.gov/organization/dscb/obtaining/. […] The stock solutions were prepared in dimethyl sulfoxide (DMSO, Sigma-Aldrich, St. Louis, MO, cat. D2650), except for the platinum compounds which were prepared in saline (Quality Biological, Gaithersburg, MD, cat. 114-055-101), at 800-fold the tested concentration and stored at -70 degrees C prior to their use. All drugs and investigational agents were tested over a range starting from a high concentration at or near the clinical Cmax and decreasing in half-log increments. If the clinical Cmax for an agent had not been determined, the highest concentration tested was 10 microM, except for SN-38, which was tested at a high concentration of 1 microM.
Cell Culture. All cells were maintained in an incubator at 37 degrees C and 5% CO2 with 95% humidity. The PDC lines were cultured according to standard operating procedures established by the NCI PDMR (https://pdmr.cancer.gov). Table 3 of the manuscript, lists the cell lines along with the number of the three cell types plated to form the mct-spheroids and media for tumor cell growth. After thawing, all PDC lines, except 997537-175-T-J1-PDC and 415267-285-R-J2-PDC, were cultured in Matrigel-coated flasks prepared with a working solution of 1X Ham's F-12 nutrient mix, without supplementation (Thermo Fisher Scientific, cat. 11765054), 100 U/mL penicillin-streptomycin (Thermo Fisher Scientific, cat. 15140122), and 2.5% Matrigel (Corning Inc., Corning, NY, cat. 354248) for the first three passages. The two PDC lines 997537-175-T-J1-PDC and 415267-285-R-J2-PDC were cultured on uncoated flasks. The 857933-349-R-J2-PDC line was cultured in 6C/Colon 1B media containing advanced DMEM/F-12 (Thermo Fisher Scientific, cat. 12634028), 10 mM HEPES (Thermo Fisher Scientific, cat. 15630080), 1X GlutaMAX supplement (Thermo Fisher Scientific, cat. 35050061), 0.1 mg/mL primocin (InvivoGen, San Diego, CA, cat. ant-pm-2), 10% defined fetal bovine serum, heat inactivated (HyClone Laboratories Inc., Logan, UT, cat. SH30070.03HI), 50% L-WRN conditioned media (ATCC, cat. CRL-3276), 1.25 mM N-Acetyl-L-cysteine (Sigma-Aldrich, cat. A9165), 10 mM nicotinamide (Sigma-Aldrich, cat. N0636), 1X B-27 supplement (Thermo Fisher Scientific, cat. 17504044), 1X N-2 supplement (Thermo Fisher Scientific, cat. […]
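Note: spheroids exposed to the agents for one week.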
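Throughout, for viability, T/C: 100% = DMSO vehicle control wells.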

Structure (SMILES): C#Cc1c(F)ccc2cc(O)cc(-c3ncc4c(N5CC6CCC(C5)N6)nc(OCC56CCCN5CC(F)C6)nc4c3F)c12 (configuration not stated) + Cc1cccc(N(C)C(=O)C2C(O)CCN2c2nc(C)cc(C(F)(F)F)c2C#N)c1
IC50 (curve of first compound, second compound 0.0316 µM): > 10 µM | IC50 (curve of first compound, second compound 0.1 µM): > 10 µM | IC50 (curve of first compound, second compound 0.316 µM): > 10 µM | IC50 (curve of first compound, second compound 1 µM): > 10 µM | IC50 (curve of first compound, second compound 3.16 µM): > 10 µM | IC50 (curve of first compound, second compound 10 µM): > 10 µM | viability, T/C (second compound 0.0316 µM, first compound 0.0316 µM): 107% | viability, T/C (second compound 0.0316 µM, first compound 0.1 µM): 102% | viability, T/C (second compound 0.0316 µM, first compound 0.316 µM): 104% | viability, T/C (second compound 0.0316 µM, first compound 1 µM): 106% | viability, T/C (second compound 0.0316 µM, first compound 3.16 µM): 95.8% | viability, T/C (second compound 0.0316 µM, first compound 10 µM): 91.3% | viability, T/C (second compound 0.1 µM, first compound 0.0316 µM): 107% | viability, T/C (second compound 0.1 µM, first compound 0.1 µM): 95% | viability, T/C (second compound 0.1 µM, first compound 0.316 µM): 94% | viability, T/C (second compound 0.1 µM, first compound 1 µM): 93.7% | viability, T/C (second compound 0.1 µM, first compound 3.16 µM): 87.9% | viability, T/C (second compound 0.1 µM, first compound 10 µM): 98.7% | viability, T/C (second compound 0.316 µM, first compound 0.0316 µM): 109% | viability, T/C (second compound 0.316 µM, first compound 0.1 µM): 108% | viability, T/C (second compound 0.316 µM, first compound 0.316 µM): 98.5% | viability, T/C (second compound 0.316 µM, first compound 1 µM): 101% | viability, T/C (second compound 0.316 µM, first compound 3.16 µM): 95% | viability, T/C (second compound 0.316 µM, first compound 10 µM): 91.7% | viability, T/C (second compound 1 µM, first compound 0.0316 µM): 102% | viability, T/C (second compound 1 µM, first compound 0.1 µM): 107% | viability, T/C (second compound 1 µM, first compound 0.316 µM): 98.7% | viability, T/C (second compound 1 µM, first compound 1 µM): 94.5% | viability, T/C (second compound 1 µM, first compound 3.16 µM): 97.8% | viability, T/C (second compound 1 µM, first compound 10 µM): 89.2% | viability, T/C (second compound 3.16 µM, first compound 0.0316 µM): 106% | viability, T/C (second compound 3.16 µM, first compound 0.1 µM): 101% | viability, T/C (second compound 3.16 µM, first compound 0.316 µM): 104% | viability, T/C (second compound 3.16 µM, first compound 1 µM): 104% | viability, T/C (second compound 3.16 µM, first compound 3.16 µM): 99.5% | viability, T/C (second compound 3.16 µM, first compound 10 µM): 86.2% | viability, T/C (second compound 10 µM, first compound 0.0316 µM): 103% | viability, T/C (second compound 10 µM, first compound 0.1 µM): 97.2% | viability, T/C (second compound 10 µM, first compound 0.316 µM): 98.1% | viability, T/C (second compound 10 µM, first compound 1 µM): 94.8% | viability, T/C (second compound 10 µM, first compound 3.16 µM): 100% | viability, T/C (second compound 10 µM, first compound 10 µM): 78.4%

IC50 (compound alone, run of 10/31/2023): > 10 µM | IC50 (compound alone, run of 11/06/2023): > 10 µM
Structure (SMILES): Cc1cccc(N(C)C(=O)C2C(O)CCN2c2nc(C)cc(C(F)(F)F)c2C#N)c1 (configuration not stated)
viability, T/C (compound 0.0316 µM): 102% [middle of 13 runs] | viability, T/C (compound 0.1 µM): 101% [middle of 13 runs] | viability, T/C (compound 0.316 µM): 103% [middle of 13 runs] | viability, T/C (compound 1 µM): 103% [middle of 13 runs] | viability, T/C (compound 3.16 µM): 103% [middle of 13 runs] | viability, T/C (compound 10 µM): 105% [middle of 13 runs]

Structure (SMILES): Cn1ncnc1[C@H]1c2n[nH]c(=O)c3cc(F)cc(c23)N[C@@H]1c1ccc(F)cc1
viability, T/C (compound 0.000316 µM): 93.8% and 97.3% and 106% | viability, T/C (compound 0.001 µM): 88.3% and 96.2% and 93.8% | viability, T/C (compound 0.00316 µM): 94% and 101% and 93.7% | viability, T/C (compound 0.01 µM): 103% and 100% and 109% | viability, T/C (compound 0.0316 µM): 94.3% and 98.1% and 96.2% | viability, T/C (compound 0.1 µM): 79.3% and 83.4% and 61% | IC50 (curve of compound): > 0.1 µM
